Patent publication US4132731A, “Novel iodized isophthalamic acid compounds” (Schering Aktiengesellschaft, priority 1976, dated 1979)

Legend:
[1] = tested on: rats; test: neural compatibility: intracerebral compatibility / Valzelli value (ED50) in rats; conditions: aqueous meglumine salt solutions, confidence range p 0.05
[2] = general compatibility (LD50 i.v.) in rats; conditions: rat, in vivo, iv
[3] = rats, aqueous meglumine salt solutions

COCC(=O)Nc1c(I)c(C(=O)O)c(I)c(C(=O)NCC(C)O)c1I (centres unmarked) [Compound 3, N-(2-Hydroxypropyl)-2,4,6-triiodo-5-methoxyacetamidoisophthalamic Acid]
Valzelli Value (ED50) and Confidence Range [1]: 44.6 (35.5-52.2) mg. I/kg. | LD50 [2, 3]: 19000 mg/kg

CC(=O)Nc1c(I)c(C(=O)O)c(I)c(C(=O)NCCO)c1I [Compound 1, ioxithalamic acid, reference compound]
Valzelli Value (ED50) and Confidence Range [1]: 12.3 (10.3-14.4) mg. I/kg. | LD50 [2]: 15200 mg/kg

CC(=O)Nc1c(I)c(C(=O)O)c(I)c(C(=O)NCC(C)O)c1I (centres unmarked) [Compound 7]
Valzelli Value (ED50) and Confidence Range [1]: 50.7 (44.3-56.6) mg. I/kg. | LD50 [2]: 18200 mg/kg

COCC(=O)Nc1c(I)c(C(=O)O)c(I)c(C(=O)NCCCO)c1I [Compound 4, N-(3-Hydroxypropyl)-2,4,6-triiodo-5-methoxyacetamidoisophthalamic Acid]
Valzelli Value (ED50) and Confidence Range [1]: 43.1 (32.6-50.9) mg. I/kg. | LD50 [2, 3]: 16300 mg/kg

COCC(=O)Nc1c(I)c(C(=O)O)c(I)c(C(=O)NC(C)(C)CO)c1I [Compound 2, N-(2-hydroxy-1,1-dimethylethyl)-2,4,6-triiodo-5-methoxyacetamidoisophthalamic acid]
Valzelli Value (ED50) and Confidence Range [1]: 71.4 (61.4-99.9) mg. I/kg. | LD50 [2, 3]: 20000 mg/kg

COCC(=O)Nc1c(I)c(C(=O)O)c(I)c(C(=O)NC(C)(C)CCO)c1I [Compound 6, N-(3-hydroxy-1,1-dimethylpropyl)-2,4,6-triiodo-5-methoxyacetamidoisophthalamic acid]
Valzelli Value (ED50) and Confidence Range [1]: 67.2 (58.7-84.8) mg. I/kg. | LD50 [2, 3]: 18400 mg/kg

COCC(=O)Nc1c(I)c(C(=O)O)c(I)c(C(=O)NCCO)c1I [Compound 5, N-(2-Hydroxyethyl)-2,4,6-triiodo-5-methoxyacetamidoisophthalamic Acid]
Valzelli Value (ED50) and Confidence Range [1]: 44.9 (36.7-51,8) mg. I/kg. | LD50 [2, 3]: > 18600 mg/kg
